Assay results as given in patent US7495017B2, “Phosphodiesterase 4 inhibitors” (Memory Pharmaceuticals Corporation, priority 2003, dated 2009).

melting point: 149 to 151 °C
SMILES: COc1ccc(-c2ccn[nH]2)cc1O[C@@H]1CCOC1 [Example 1B, 3-[4-Methoxy-3-(3R)-tetrahydrofuranyloxyphenyl]-1H-pyrazole]
